Tests used:
[1] = biological target: dephosphorylated FGFR1 (SEQ ID NO: 1, amino acids 458 to 765) (Homo sapiens (Human), UniProt P11362); assay: FGFR enzyme binding assay (HTRF tracer displacement), FGFR1; conditions: 5 nM dephosphorylated FGFR1, average of multiple determinations if made
How it was run: (§1)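 Compounds were tested for displacement of a tracer from human FGFR kinase in a time-resolved FRET binding format. After 60 minutes at 22° C, signal was read at two wavelengths and converted to percent of control, normalised between untreated wells and 1 μM reference inhibitor.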

[2] = biological target: phosphorylated FGFR3 (SEQ ID NO: 5, amino acids 449 to 759) (Homo sapiens (Human), UniProt P22607); assay: FGFR enzyme binding assay (HTRF tracer displacement), FGFR3; conditions: 5 nM phosphorylated FGFR3, average of multiple determinations if made
Sequence of phosphorylated FGFR3 (SEQ ID NO: 5, amino acids 449 to 759) (P22607 449-759): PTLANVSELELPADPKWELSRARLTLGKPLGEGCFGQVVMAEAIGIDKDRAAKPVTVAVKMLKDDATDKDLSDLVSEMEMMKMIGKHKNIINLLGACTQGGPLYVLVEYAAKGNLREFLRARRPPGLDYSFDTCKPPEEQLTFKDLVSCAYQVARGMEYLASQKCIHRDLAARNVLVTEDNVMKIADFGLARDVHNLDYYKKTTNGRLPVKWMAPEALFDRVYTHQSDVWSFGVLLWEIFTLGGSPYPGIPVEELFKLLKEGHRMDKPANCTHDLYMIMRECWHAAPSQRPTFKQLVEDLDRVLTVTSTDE
How it was run: as §1

[3] = biological target: recombinant human FGFR1 catalytic domain (amino acids 308-731) (Homo sapiens (Human), UniProt P11362); assay: FGFR1 enzyme activity assay (LanthaScreen TR-FRET); format: biochemical; conditions: 20 min incubation at 22° C., average of multiple determinations if made, read-out: FGFR1 Enz FRET IC50
Sequence of recombinant human FGFR1 catalytic domain (amino acids 308-731) (P11362 other isoform, or with tags, fused parts or gaps): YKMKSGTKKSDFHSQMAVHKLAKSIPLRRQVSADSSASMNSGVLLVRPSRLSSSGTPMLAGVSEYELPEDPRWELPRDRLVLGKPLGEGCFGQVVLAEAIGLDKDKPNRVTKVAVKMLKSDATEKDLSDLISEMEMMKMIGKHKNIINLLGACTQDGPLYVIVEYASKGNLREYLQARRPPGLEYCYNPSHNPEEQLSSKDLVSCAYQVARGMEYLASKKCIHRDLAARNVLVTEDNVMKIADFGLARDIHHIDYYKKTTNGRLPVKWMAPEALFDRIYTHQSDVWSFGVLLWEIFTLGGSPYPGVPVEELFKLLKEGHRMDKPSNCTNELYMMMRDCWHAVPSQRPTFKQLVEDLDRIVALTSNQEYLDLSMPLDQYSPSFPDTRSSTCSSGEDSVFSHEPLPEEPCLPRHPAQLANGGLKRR
How it was run: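 His-tagged FGFR1 kinase domain with 100 nM Alexa Fluor 647-poly-GT peptide and ATP in pH 7.5 HEPES/MgCl2 buffer with 2% DMSO, 20 min at 22 °C. Quenched with EDTA plus 2 nM Eu-PY20 antibody and read after 60 min. IC50 comes from a 4-parameter fit of percent of control.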

[4] = biological target: recombinant human FGFR3 (amino acids R397-T806) (Homo sapiens (Human), UniProt P22607); assay: FGFR3 enzyme activity assay (LanthaScreen TR-FRET); format: biochemical; conditions: 25 μM ATP, 10 min incubation at 22° C., average of multiple determinations if made, read-out: FGFR3 Enz FRET IC50
Sequence of recombinant human FGFR3 (amino acids R397-T806) (P22607 397-806): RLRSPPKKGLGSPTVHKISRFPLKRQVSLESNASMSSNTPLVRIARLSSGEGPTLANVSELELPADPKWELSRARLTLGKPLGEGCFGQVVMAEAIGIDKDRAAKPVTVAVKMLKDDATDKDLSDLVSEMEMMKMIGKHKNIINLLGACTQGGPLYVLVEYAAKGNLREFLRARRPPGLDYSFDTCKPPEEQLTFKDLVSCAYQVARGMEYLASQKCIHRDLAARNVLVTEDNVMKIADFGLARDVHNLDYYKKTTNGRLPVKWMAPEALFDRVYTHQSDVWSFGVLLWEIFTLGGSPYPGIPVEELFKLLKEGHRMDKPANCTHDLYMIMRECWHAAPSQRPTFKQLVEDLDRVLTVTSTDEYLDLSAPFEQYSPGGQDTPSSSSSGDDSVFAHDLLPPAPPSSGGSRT
How it was run: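 GST-HIS6-tagged human FGFR3 (R397-T806) was reacted with 100 nM Alexa Fluor 647-Poly-GT substrate and 25 μM ATP plus compound in HEPES/MgCl2/Triton buffer, pH 7.5, 2% DMSO, for 10 min at 22 °C.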

[5] = biological target: FGFR1 (SEQ ID NO: 1, amino acids 458-765) (Homo sapiens (Human), UniProt P11362); assay: LC/MS FGFR1 kobs assay (covalent protein modification); format: binding; conditions: 500 nM FGFR1, 3 μM compound
Sequence of FGFR1 (SEQ ID NO: 1, amino acids 458-765) (P11362 458-765): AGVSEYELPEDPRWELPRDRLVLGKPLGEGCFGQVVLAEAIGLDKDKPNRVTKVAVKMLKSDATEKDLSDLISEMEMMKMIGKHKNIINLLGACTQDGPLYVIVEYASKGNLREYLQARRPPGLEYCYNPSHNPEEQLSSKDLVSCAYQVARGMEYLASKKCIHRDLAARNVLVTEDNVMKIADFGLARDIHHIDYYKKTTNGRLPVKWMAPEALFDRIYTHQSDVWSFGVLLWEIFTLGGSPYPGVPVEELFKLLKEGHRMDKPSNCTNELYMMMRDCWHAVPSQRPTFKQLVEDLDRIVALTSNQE
How it was run: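 Covalent labeling of FGFR1 kinase domain (aa 458-765) tracked over time by intact-protein LC/MS after formic acid quench. kobs derived by fitting DMSO-normalized percent unmodified FGFR1 to an exponential decay model.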

Sequence of dephosphorylated FGFR1 (SEQ ID NO: 1, amino acids 458 to 765) (P11362 458-765): as above

C=CC(=O)N1CCC(C(=O)N2CCC(n3ncc(-c4cc(OC)c5c(C#N)cnn5c4)c3C)CC2)CC1 [Example 82, 6-(1-(1-(1-acryloylpiperidine-4-carbonyl)piperidin-4-yl)-5-methyl-1H-pyrazol-4-yl)-4-methoxypyrazolo[1,5-a]pyridine-3-carbonitrile]
IC50 [1]: 374 nM | IC50 [2]: 23 nM | IC50 [3]: 73 nM | IC50 [4]: 10 nM | FGFR1 Enz kobs [5]: 0.00034 min⁻¹

C=CC(=O)N1CC[C@@H](C(=O)N2CCC(n3ncc(-c4cc(OC)c5c(C#N)cnn5c4)c3C)CC2)C1 [Example 83, (R)-6-(1-(1-(1-acryloylpyrrolidine-3-carbonyl)piperidin-4-yl)-5-methyl-1H-pyrazol-4-yl)-4-methoxypyrazolo[1,5-a]pyridine-3-carbonitrile]
IC50 [1]: 420 nM | IC50 [2]: 14 nM | IC50 [3]: 77 nM | IC50 [4]: 7 nM | FGFR1 Enz kobs [5]: 0.00058 min⁻¹

C=CC(=O)N1CC(C(=O)N2CCC(n3ncc(-c4cc(OC)c5c(C#N)cnn5c4)c3C)CC2)C1 [Example 84, 6-(1-(1-(1-acryloylazetidine-3-carbonyl)piperidin-4-yl)-5-methyl-1H-pyrazol-4-yl)-4-methoxypyrazolo[1,5-a]pyridine-3-carbonitrile]
IC50 [1]: 777 nM | IC50 [2]: 22 nM | IC50 [3]: 100 nM | IC50 [4]: 6 nM | FGFR1 Enz kobs [5]: 0.00183 min⁻¹

C=CC(=O)N1CC(F)(C(=O)N2CCC(n3ncc(-c4cc(OC)c5c(C#N)cnn5c4)c3C)CC2)C1 [Example 85, 6-(1-(1-(1-acryloyl-3-fluoroazetidine-3-carbonyl)piperidin-4-yl)-5-methyl-1H-pyrazol-4-yl)-4-methoxypyrazolo[1,5-a]pyridine-3-carbonitrile]
IC50 [1]: 247 nM | IC50 [2]: 3 nM | IC50 [3]: 77 nM | IC50 [4]: 7 nM | FGFR1 Enz kobs [5]: 0.00492 min⁻¹

C=CC(=O)N1CC(C)(C(=O)N2CCC(n3ncc(-c4cc(OC)c5c(C#N)cnn5c4)c3C)CC2)C1 [Example 86, 6-(1-(1-(1-acryloyl-3-methylazetidine-3-carbonyl)piperidin-4-yl)-5-methyl-1H-pyrazol-4-yl)-4-methoxypyrazolo[1,5-a]pyridine-3-carbonitrile]
IC50 [1]: 342 nM | IC50 [2]: 9 nM | IC50 [3]: 617 nM | IC50 [4]: 11 nM | FGFR1 Enz kobs [5]: 0.00258 min⁻¹

C=CC(=O)N1CC(C(=O)N2CCC(n3ncc(-c4cc(OC)c5c(C#N)cnn5c4)c3C)CC2)C1(C)C (stereo not drawn) [Example 87, 6-(1-(1-(1-acryloyl-2,2-dimethylazetidine-3-carbonyl)piperidin-4-yl)-5-methyl-1H-pyrazol-4-yl)-4-methoxypyrazolo[1,5-a]pyridine-3-carbonitrile]
IC50 [1]: 322 nM | IC50 [2]: 16 nM | IC50 [3]: 240 nM | IC50 [4]: 32 nM | FGFR1 Enz kobs [5]: 0.00052 min⁻¹

C=CC(=O)N1CC(OC)(C(=O)N2CCC(n3ncc(-c4cc(OC)c5c(C#N)cnn5c4)c3C)CC2)C1 [Example 88, 6-(1-(1-(1-acryloyl-3-methoxyazetidine-3-carbonyl)piperidin-4-yl)-5-methyl-1H-pyrazol-4-yl)-4-methoxypyrazolo[1,5-a]pyridine-3-carbonitrile]
IC50 [1]: 202 nM | IC50 [2]: 3 nM | IC50 [3]: 152 nM | IC50 [4]: 29 nM | FGFR1 Enz kobs [5]: 0.00646 min⁻¹

C=CC(=O)N1CC(CN2CCC(n3ncc(-c4cc(OC)c5c(C#N)cnn5c4)c3C)CC2)C1 [Example 89, 6-(1-(1-((1-acryloylazetidin-3-yl)methyl)piperidin-4-yl)-5-methyl-1H-pyrazol-4-yl)-4-methoxypyrazolo[1,5-a]pyridine-3-carbonitrile]
IC50 [1]: 236 nM | IC50 [2]: 8 nM | IC50 [3]: 108 nM | IC50 [4]: 15 nM | FGFR1 Enz kobs [5]: 0.00364 min⁻¹

C=CC(=O)N1CC(C)(CN2CCC(n3ncc(-c4cc(OC)c5c(C#N)cnn5c4)c3C)CC2)C1 [Example 90, 6-(1-(1-((1-acryloyl-3-methylazetidin-3-yl)methyl)piperidin-4-yl)-5-methyl-1H-pyrazol-4-yl)-4-methoxypyrazolo[1,5-a]pyridine-3-carbonitrile]
IC50 [1]: 379 nM | IC50 [2]: 14 nM | IC50 [3]: 165 nM | IC50 [4]: 21 nM | FGFR1 Enz kobs [5]: 0.00243 min⁻¹

C=CC(=O)N1CC(CN2CCC(n3ncc(-c4cc(OC)c5c(C#N)cnn5c4)c3C)CC2)(OC)C1 [Example 91, 6-(1-(1-((1-acryloyl-3-methoxyazetidin-3-yl)methyl)piperidin-4-yl)-5-methyl-1H-pyrazol-4-yl)-4-methoxypyrazolo[1,5-a]pyridine-3-carbonitrile]
IC50 [1]: 284 nM | IC50 [2]: 2 nM | IC50 [3]: 197 nM | IC50 [4]: 19 nM | FGFR1 Enz kobs [5]: 0.00431 min⁻¹

C=CC(=O)N1CC(CN2CC(n3ncc(-c4cc(OC)c5c(C#N)cnn5c4)c3C)C2)C1 [Example 92]
IC50 [1]: 444 nM | IC50 [2]: 49 nM | IC50 [3]: 285 nM | IC50 [4]: 39 nM | FGFR1 Enz kobs [5]: 0.00191 min⁻¹

C=CC(=O)N1CC(C)(CN2CC(n3ncc(-c4cc(OC)c5c(C#N)cnn5c4)c3C)C2)C1 [Example 93, 6-(1-(1-((1-acryloyl-3-methylazetidin-3-yl)methyl)azetidin-3-yl)-5-methyl-1H-pyrazol-4-yl)-4-methoxypyrazolo[1,5-a]pyridine-3-carbonitrile]
IC50 [1]: 482 nM | IC50 [2]: 40 nM | IC50 [3]: 376 nM | IC50 [4]: 41 nM | FGFR1 Enz kobs [5]: 0.0012 min⁻¹

C=CC(=O)N1CC(C(=O)N2CCC(n3cc(-c4cc(OC)c5c(C#N)cnn5c4)c(C)n3)CC2)C1 [Example 94, 6-(1-(1-(1-acryloylazetidine-3-carbonyl)piperidin-4-yl)-3-methyl-1H-pyrazol-4-yl)-4-methoxypyrazolo[1,5-a]pyridine-3-carbonitrile]
IC50 [1]: 346 nM | IC50 [2]: 18 nM | IC50 [3]: 73 nM | IC50 [4]: 8 nM | FGFR1 Enz kobs [5]: 0.00145 min⁻¹

C=CS(=O)(=O)N[C@H]1CC[C@H](C(=O)N2CCC(n3cc(-c4cc(OC)c5c(C#N)cnn5c4)cn3)CC2)C1 [Example 190, N-((1S,3S)-3-(4-(4-(3-cyano-4-methoxypyrazolo[1,5-a]pyridin-6-yl)-1H-pyrazol-1-yl)piperidine-1-carbonyl)cyclopentyl)-ethenesulfonamide]
IC50 [1]: 37 nM | IC50 [2]: 3 nM | IC50 [3]: 9 nM | IC50 [4]: 1 nM | FGFR1 Enz kobs [5]: 0.00423 min⁻¹

C=CS(=O)(=O)N[C@@H]1CC[C@H](C(=O)N2CCC(n3cc(-c4cc(OC)c5c(C#N)cnn5c4)cn3)CC2)C1 [Example 191, N-((1R,3S)-3-(4-(4-(3-cyano-4-methoxypyrazolo[1,5-a]pyridin-6-yl)-1H-pyrazol-1-yl)piperidine-1-carbonyl)cyclopentyl)-ethenesulfonamide]
IC50 [1]: 103 nM | IC50 [2]: 10 nM | IC50 [3]: 19 nM | IC50 [4]: 4 nM | FGFR1 Enz kobs [5]: 0.00583 min⁻¹
